# Where a name gives a salt, the structure may show the parent alone.
# Biological target: T1, methionine aminopeptidase-2 (MetAP2) (Homo sapiens, UniProt P50579)
# T1 construct: made in house; host or cells: insect cells, baculovirus system (secreted, purified from culture supernatant)
# Test: Inhibition of MetAP2 enzyme activity (96-well, Met-Ala-Ser substrate, L-amino acid oxidase/peroxidase/ortho-dianisidine, 450 nm)
# Assay type: biochemical
# Details: IC50, recombinant MetAP2 4 μg/mL, pH 7.4, Met-Ala-Ser substrate, 20 minutes
# T1 sequence (P50579 whole entry): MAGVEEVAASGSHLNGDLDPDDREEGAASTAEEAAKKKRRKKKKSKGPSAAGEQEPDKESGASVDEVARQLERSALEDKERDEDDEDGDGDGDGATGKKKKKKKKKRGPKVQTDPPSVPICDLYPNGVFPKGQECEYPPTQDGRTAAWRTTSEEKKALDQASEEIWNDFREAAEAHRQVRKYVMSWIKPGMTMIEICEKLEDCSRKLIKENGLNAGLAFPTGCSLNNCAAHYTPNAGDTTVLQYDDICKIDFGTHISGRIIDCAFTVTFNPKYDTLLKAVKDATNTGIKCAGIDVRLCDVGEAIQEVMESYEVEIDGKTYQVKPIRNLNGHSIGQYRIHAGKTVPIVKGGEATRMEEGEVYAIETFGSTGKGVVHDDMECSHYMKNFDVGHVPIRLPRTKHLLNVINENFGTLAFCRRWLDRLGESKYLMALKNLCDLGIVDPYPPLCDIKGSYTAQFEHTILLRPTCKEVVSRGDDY
row,Structure (SMILES),IC50
1,"CC(=O)OC[C@@H](C)NC(=O)C(O)[C@H](N)CC1CCCCC1 (stereo partly drawn) [Example 52, (2RS,3R,2'R)-N-((2-acetoxypropyl)-3-amino-2-hydroxy-4-cyclohexyl)butanamidehydrochloride]",6.1 µM
2,"C[C@H](NC(=O)C(O)[C@H](N)CC1CCCCC1)C(=O)OCc1ccccc1 (stereo partly drawn) [Example 53, (2RS,3R,1'S)-N-((1-benzyloxycarbonylethyl)-3-amino-2hydroxy-$-cyclohexyl)butanamide hydrochloride]",1.8 µM
3,"CCOC(=O)c1csc([C@H](C)NC(=O)C(O)[C@H](N)CC2CCCCC2)n1 (stereo partly drawn) [Example 54, (2RS,3R,1'-S)-N-(4-ethoxycarbonyl-2-(1'-aminoethyl)thizole)-3-amino-2-hydroxy-4-cyclohexyl)butanamide hydrochloride]",2.6 µM
4,"CN(C)c1cccc2c(S(=O)(=O)NCCCCCNC(=O)C(O)[C@H](N)CC3CCCCC3)cccc12 (stereo partly drawn) [Example 55, (2RS,3R) N-(monodansylcadaverenyl-3-amino-2-hydroxy-4-cyclohexyl)butanamidedihydrochloride]",2.7 µM
5,"Cc1ncc([N+](=O)[O-])n1CCNC(=O)C(O)[C@H](N)CC1CCCCC1 (stereo partly drawn) [Example 56, (2RS,3R) N-(2-methyl-5-nitroimidazole-ethyl) 3-amino-2-hydroxy-4-cyclohexyl)butanamide dihydrochloride]",12 µM
6,"N[C@H](CC1CCCCC1)C(O)C(=O)NCCNc1ccc([N+](=O)[O-])cn1 (stereo partly drawn) [Example 57, (2RS,3R) N-(5-nitropyridyl-2-aminoethyl) 3-amino-2-hydroxy-4-cyclohexyl)butanamide dihydrochloride]",3.1 µM
7,COc1ccc2[nH]cc(CCNC(=O)C(O)[C@H](N)CC3CCCCC3)c2c1 (stereo partly drawn) [Example 58],3.5 µM
8,COc1cc(CCNC(=O)C(O)[C@H](N)CC2CCCCC2)ccc1O (stereo partly drawn) [Example 59],1.5 µM
9,"N[C@H](CC1CCCCC1)C(O)C(=O)NCc1nc2ccccc2[nH]1 (stereo partly drawn) [Example 60, (2RS,3R) N-(2-aminomethylbenzimidazolyl) 3-amino-2-hydroxy-4-cyclohexyl)butanamide hydrochloride]",18 µM
10,"Cc1ncc([N+](=O)[O-])n1CCNC(=O)[C@H](C)NC(=O)C(O)[C@H](N)CC1CCCCC1 (stereo partly drawn) [Example 61, ((2RS,3R)-3-amino-2-hydroxy-4-cyclohexyl)butanoyl-L-alanyl-(2-methyl-5-nitroimidazolyl-ethyl)amide hydrochloride]",13 µM
11,"C[C@H](NC(=O)C(O)[C@H](N)CC1CCCCC1)C(=O)NCCNc1ccc([N+](=O)[O-])cn1 (stereo partly drawn) [Example 62, ((2RS,3R)-3-amino-2-hydroxy-4-cyclohexyl)butanoyl-L-alanyl-(5-nitropyridylaminoethyl)amide dihydrochloride]",7.6 µM
12,"CCOC(=O)C1CCN(C(=O)[C@H](C)NC(=O)C(O)[C@H](N)CC2CCCCC2)CC1 (stereo partly drawn) [Example 63, ((2RS,3R)-3-amino-2-hydroxy-4-cyclohexyl)butanoyl-L-alanyl-(ethylisonipecotate)amide hydrochloride]",20 µM
13,"C[C@H](NC(=O)C(O)[C@H](N)CC1CCCCC1)C(=O)NCCCN1CCCC1=O (stereo partly drawn) [Example 64, ((b 2RS,3R)-3-amino-2-hydroxy-4-cyclohexyl)butanoyl-L-alanyl-(2-pyrrolidinopropyl)amide hydrochloride]",19 µM
14,"COc1cc(CCNC(=O)[C@H](C)NC(=O)C(O)[C@H](N)CC2CCCCC2)ccc1O (stereo partly drawn) [Example 66, ((2RS,3R)-3-amino-2-hydroxy-4-cyclohexyl)butanoyl-L-alanyl-(3-O-methoxydopamine)amide hydrochloride]",10 µM
15,"C[C@H](NC(=O)C(O)[C@H](N)CC1CCCCC1)C(=O)NCc1nc2ccccc2[nH]1 (stereo partly drawn) [Example 67, ((2RS,3R)-3-amino-2-hydroxy-4-cyclohexyl)butanoyl-L-alanyl-(2-benzimidazolemethyl)amide hydrochloride]",13 µM
16,"C[C@H](NC(=O)C(O)[C@H](N)CC1CCCCC1)C(=O)Nc1cc(-c2ccccc2)[nH]n1 (stereo partly drawn) [Example 68, ((2RS,3R)-3-amino-2-hydroxy-4-cyclohexyl)butanoyl-L-alanyl-(5-phenyl-pyrazole-3)amide hydrochloride]",3.8 µM
17,"C[C@H](NC(=O)C(O)[C@H](N)CC1CCCCC1)C(=O)Nc1cc([N+](=O)[O-])ccc1O (stereo partly drawn) [Example 69, ((2RS,3R)-3-amino-2-hydroxy-4-cyclohexyl)butanoyl-L-alanyl-(2-hydroxy-5-nitrophen-1-yl)amide hydrochloride]",5.3 µM
18,"C[C@H](NC(=O)C(O)[C@H](N)CC1CCCCC1)C(=O)Nc1ncc(Br)s1 (stereo partly drawn) [Example 70, ((2RS,3R)-3-amino-2-hydroxy-4-cyclohexyl)butanoyl-L-alanyl-(5-bromothizole-2)amide hydrochloride]",5.4 µM
19,"C[C@H](NC(=O)C(O)[C@H](N)CC1CCCCC1)C(=O)Nc1ccc([N+](=O)[O-])cc1O (stereo partly drawn) [Example 71, ((2RS,3R)-3-amino-2-hydroxy-4-cyclohexyl)butanoyl-L-alanyl-(4-nitro-2-hydroxyphen-1-yl)amide hydrochloride]",12 µM

row,Structure (SMILES),IC50
1,"CCn1nccc1NC(=O)[C@H](C)NC(=O)C(O)[C@H](N)CC1CCCCC1 (stereo partly drawn) [Example 72, ((2RS,3R)-3-amino-2-hydroxy-4-cyclohexyl)butanoylL-alanyl-(1-ethylpyrazole)amide hydrochloride]",9.2 µM
2,"CCOC(=O)C1CCN(C(=O)C(O)[C@H](N)CC2CCCCC2)CC1 (stereo partly drawn) [Example 73, ((2RS,3R)-3-amino-2hydroxy-4-cyclohexyl)butanoyl-(ethylisonipecotate)amide hydrochloride]",6.8 µM
3,"N[C@H](CC1CCCCC1)C(O)C(=O)NCCCn1ccnc1 (stereo partly drawn) [Example 74, ((2RS,3R)-3-amino-2-hydroxy-4-cyclohexyl)butanoyl-(3-imidazolylpropyl)amidedihydrochloride]",30 µM
4,"C[C@H](NC(=O)C(O)[C@H](N)CC1CCCCC1)c1nc(C(=O)O)cs1 (stereo partly drawn) [Example 75, (2RS,3R)-3-amino-2-hydroxy-4-cyclohexyl)butanoyl-(4-carboxyl-2-(1'amino)ethyl thizole hydrochloride]",9.4 µM
5,"N[C@H](CC1CCCCC1)C(O)C(=O)NCCCCNC(=O)OCc1ccccc1 (stereo partly drawn) [Example 77, (2RS,3R)-3-amino-2-hydroxy-4-cyclohexyl)butanoyl-(4-benzloxycarbonylamino)butylamide hydrochloride]",3.3 µM
6,"N[C@H](CC1CCCCC1)C(O)C(=O)NCCNC(=O)OCc1ccccc1 (stereo partly drawn) [Example 78, hydrochloride]",1.8 µM
7,"CCSCC[C@@H](N)C(O)C(=O)NCCCCCNS(=O)(=O)c1cccc2c(N(C)C)cccc12 (stereo partly drawn) [Example 79, dihydrochloride]",0.1 µM
8,"Cc1ccc(S(=O)(=O)NCCCCNC(=O)C(O)[C@H](N)CC2CCCCC2)cc1 (stereo partly drawn) [Example 80, (2RS,3R)-3-amino-2-hydroxy-4-cyclohexyl)butanoyl-(4-(4-toluenesulfonyl)aminobutyl)amide hydrochloride]",1.3 µM
9,"Cc1ccc(S(=O)(=O)NCCNC(=O)C(O)[C@H](N)CC2CCCCC2)cc1 (stereo partly drawn) [Example 81, (2RS,3R)-3-amino-2-hydroxy-4-cyclohexyl)butanoyl-(2-4-toluenesulfonylaminoethyl)amide hydrochloride]",1.8 µM
10,"NCCCCNC(=O)C(O)[C@H](N)CC1CCCCC1 (stereo partly drawn) [Example 82, (2RS,3R)-3-amino-2-hydroxy-4-cyclohexyl)butanoyl-(4-aminobutyl)amide dihydrochloride]",38 µM
11,"NCCNC(=O)C(O)[C@H](N)CC1CCCCC1 (stereo partly drawn) [Example 83, (2RS,3R)-3-amino-2-hydroxy-4-cyclohexyl)butanoyl-(2-aminoethyl)amide dihydrochloride]",26 µM
12,"CC(=O)Nc1ccc(S(=O)(=O)NCCCCNC(=O)C(O)[C@H](N)CC2CCCCC2)cc1 (stereo partly drawn) [Example 86, (2RS,3R)-N-(4-(((4-(acetylamiono)phenyl)sulfonyl)amino)butyl)-3-amino-4-cyclohexyl-2-hydroxybutanamide hydrochloride]",1.7 µM
13,"N[C@H](CC1CCCCC1)C(O)C(=O)NCCc1ccc(S(N)(=O)=O)cc1 (stereo partly drawn) [Example 88, (2RS,3R)-3-amino-2-hydroxy-4-cyclohexyl)butanoyl-L-alanine-4-sulfonamide benzyl ester hydrochloride]",2.2 µM
14,"CC(C)(NC(=O)C(O)[C@H](N)CC1CCCCC1)C(=O)OCc1ccccc1 (stereo partly drawn) [Example 89, Hydrochloride]",6.6 µM
15,"C[C@H](NC(=O)C(O)[C@H](N)CC1CCCCC1)C(=O)OC1CCCCC1 (stereo partly drawn) [Example 90, (2RS,3R)-3-Amino-2-hydroxy-4-cyclohexyl)butanoyl-L-alanine Cyclohexyl Ester Hydrochloride]",2.3 µM
16,"C[C@H](NC(=O)C(O)[C@H](N)CC1CCCCC1)C(=O)OCc1ccccc1CS(=O)(=O)c1ccccc1 (stereo partly drawn) [Example 91, (2RS,3R)-3-Amino-2-hydroxy-4-cyclohexyl)butanoyl-L-alanine-2-((phenylsulfonyl)methyl)benzyl Ester Hydrochloride]",2.3 µM
17,"C[C@H](NC(=O)C(O)[C@H](N)CC1CCCCC1)C(=O)OCc1ccc(C(C)(C)C)cc1 (stereo partly drawn) [Example 93, (2RS,3R)-3-Amino-2-hydroxy-4-cyclohexyl)butanoyl-L-alanine 4-tert-butylbenzyl Ester Hydrochloride]",5.4 µM
18,"COC(=O)c1ccc(COC(=O)[C@H](C)NC(=O)C(O)[C@H](N)CC2CCCCC2)cc1 (stereo partly drawn) [Example 94, (2RS,3R)-3-Amino-2-hydroxy-4-cyclohexyl)butanoyl-L-alanine 4-methoxycarbonylbenzyl Ester Hydrochloride]",0.91 µM
19,"C[C@H](NC(=O)C(O)[C@H](N)CC1CCCCC1)C(=O)OCc1ccc(C(F)(F)F)cc1 (stereo partly drawn) [Example 95, (2RS,3R)-3-Amino-2-hydroxy-4-cyclohexyl)butanoyl-L-alanine 4-trifluoromethylbenzyl Ester Hydrochloride]",5.2 µM

# Same assay, conditions: recombinant MetAP2 4 μg/mL, pH 7.4, Met-Ala-Ser substrate, 20 minutes
row,Structure (SMILES),IC50
1,"COc1ccc2[nH]cc(CCNC(=O)[C@H](C)NC(=O)C(O)[C@H](N)CC3CCCCC3)c2c1 (stereo partly drawn) [Example 65, ((2RS,3R)-3-amiono-2-hydroxy-4-cyclohexyl)butanoyl-L-alanyl-(5-methoxytryptamine)amide hydrochloride]",5.6 µM
